Measured values taken from patent publication US10144715B2, “Piperazine derivatives as liver X receptor modulators” (priority 2014, dated 2018).
Like-named read-outs stand apart in the source and are kept apart here.

Columns and labels:
LXR β LBD protein = LXR β LBD protein (Homo sapiens (Human), UniProt P55055); test: biochemical; type: binding; conditions: read-out: LXRβ Binding Ki
[1] = biological target: T1, Gal4 DNA binding domain fused to the LBD of LXRβ in HEK293 cells (Homo sapiens (Human), UniProt P55055); test: cell-based; type: cell-based
LXR α LBD protein [2] = biological target: T2, LXR α LBD protein (Homo sapiens (Human), UniProt Q13133); test: Human LXRα coactivator recruitment FRET assay, agonist mode; type: biochemical; conditions: agonist mode
Procedure, shortened: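 LXRα- or LXRβ-LBD at 10 nM (2×) mixed with compound in DMSO, then fluorescein-SRC2-3 peptide 200 nM and Tb-anti-GST antibody 20 nM (4×) added; 2 h at rt. Time-resolved FRET read, 100 µs delay, 200 µs window; EC50 from four-parameter fit of percent control.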

[3] = biological target: T3, Gal4 DNA binding domain fused to the LBD of LXRα in HEK293 cells (Homo sapiens (Human), UniProt Q13133); test: LXR luciferase transcriptional reporter gene assay, antagonist mode (200 nM T0901317), LXRα; type: cell-based
LXR α LBD protein [4] = biological target: T2, LXR α LBD protein; test: LXR α radioligand binding assay (SPA, competition with [3H]TO901317); conditions: read-out: LXRα Binding Ki
[5] = biological target: T3, Gal4 DNA binding domain fused to the LBD of LXRα in HEK293 cells; test: LXR luciferase transcriptional reporter gene assay, agonist mode, LXRα; type: cell-based
[6] = biological target: T1, Gal4 DNA binding domain fused to the LBD of LXRβ in HEK293 cells; test: cell-based
[7] = antagonist mode, 200 nM T0901317, HEK293 reporter gene assay
[8] = antagonist mode, 200 nM T0901317, HEK293 reporter gene assay, read-out: Cell LXRα IC50
[9] = agonist mode, read-out: Cell LXRα EC50

T3 sequence (Q13133 209-447): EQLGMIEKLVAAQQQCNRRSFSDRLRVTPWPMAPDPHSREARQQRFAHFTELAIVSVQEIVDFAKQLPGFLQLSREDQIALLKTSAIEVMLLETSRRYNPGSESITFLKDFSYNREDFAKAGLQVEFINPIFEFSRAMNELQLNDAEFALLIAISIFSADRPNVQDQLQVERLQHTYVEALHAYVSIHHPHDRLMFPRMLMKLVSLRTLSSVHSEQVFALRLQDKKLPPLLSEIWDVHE
T2 sequence (Q13133 209-447): as above
T1 sequence (P55055 222-460 limits assumed): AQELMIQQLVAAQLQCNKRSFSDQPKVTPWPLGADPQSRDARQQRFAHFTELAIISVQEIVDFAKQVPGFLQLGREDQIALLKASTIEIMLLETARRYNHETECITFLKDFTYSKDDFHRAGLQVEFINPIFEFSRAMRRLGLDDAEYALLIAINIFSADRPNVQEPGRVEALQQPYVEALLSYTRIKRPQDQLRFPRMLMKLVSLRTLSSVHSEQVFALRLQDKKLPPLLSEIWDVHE
LXR β LBD protein, sequence (P55055 222-460 limits assumed): as above

Row | SMILES | Ki (LXR β LBD protein) [nM] | IC50 [1] [nM] | IC50 ([3]; read-out: Cell LXRα IC50) [nM] | Ki (LXR α LBD protein [4]) [nM] | Cell LXRα efficacy [5] | EC50 ([5]; read-out: Cell LXRα EC50) [nM] | EC50 [6] [nM] | Cell LXRβ efficacy [1, 7] | Cell LXRα efficacy [3] | IC50 [3, 8] [nM] | EC50 [5, 9] [nM] | Cell LXRβ efficacy [1] | other results
1 | Cc1nc(N2CCN(c3ccc(F)c(S(C)(=O)=O)c3)C[C@H]2C(C)C)ncc1Cl [7-12, (R)-5-chloro-2-(4-(4-fluoro-3-(methylsulfonyl)phenyl)-2-isopropylpiperazin-1-yl)-4-methylpyrimidine] | 9 | > 10000 | > 10000 | 105 | 997 (83) % | 997 | 177 |  |  |  |  |  | EC50 (LXR α LBD protein [2]): 677 nM; FRET LXRα efficacy (LXR α LBD protein [2]): 86%; Cell LXRβ efficacy ([6]; agonist mode): 177 (58) %
2 | CC(C)[C@@H]1CN(c2ccc(F)c(S(C)(=O)=O)c2)CCN1c1ccc(C(F)(F)F)cn1 [7-36, (R)-4-(4-fluoro-3-(methylsulfonyl)phenyl)-2-isopropyl-1-(5-(trifluoromethyl)pyridin-2-yl)piperazine] | 4 | > 10000 | > 10000 | 30 | 333 (106) % | 333 | 121 |  |  |  |  |  | EC50 (LXR α LBD protein [2]): 415 nM; FRET LXRα efficacy (LXR α LBD protein [2]): 102%; Cell LXRβ efficacy [6]: 121 (93) %
3 | CC(C)[C@@H]1CN(c2ccc(F)c(S(C)(=O)=O)c2)CCN1c1ncc(CN(C)C(C)(C)C)c(C(F)(F)F)n1 [15-6, (R)-N-((2-(4-(4-fluoro-3-(methylsulfonyl)phenyl)-2-isopropylpiperazin-1-yl)-4-(trifluoromethyl)pyrimidin-5-yl)methyl)-N,2-dimethylpropan-2-amine] | 360 | 1320 |  | > 3330 |  |  | > 20000 | 1325 (91) % | 6215 (98) % | 6220 | > 20000 |  | 
4 | CCCCN(C)C(=O)c1cnc(N2CCN(c3ccc(F)c(S(C)(=O)=O)c3)C[C@H]2C(C)C)nc1C(F)(F)F [17-10, (R)-N-butyl-2-(4-(4-fluoro-3-(methylsulfonyl)phenyl)-2-isopropylpiperazin-1-yl)-N-methyl-4-(trifluoromethyl)pyrimidine-5-carboxamide] | 65 | 100 |  | 558 |  |  | > 20000 | 100 (89) % | 501 (94) % | 501 | > 20000 |  | 
5 | CC(C)[C@@H]1CN(c2ccc(F)c(S(C)(=O)=O)c2)CCN1c1ncc(C(=O)N(C)CCCO)c(C(F)(F)F)n1 [17-11, (R)-2-(4-(4-fluoro-3-(methylsulfonyl)phenyl)-2-isopropylpiperazin-1-yl)-N-(3-hydroxypropyl)-N-methyl-4-(trifluoromethyl)pyrimidine-5-carboxamide] | 548 | 875 |  | 4880 |  |  | > 20000 | 875 (90) % |  | 3460 | > 20000 |  | 
6 | CCOC(=O)CN(C)C(=O)c1cnc(N2CCN(c3ccc(F)c(S(C)(=O)=O)c3)C[C@H]2C(C)C)nc1C(F)(F)F [17-16, ethyl (R)-N-(2-(4-(4-fluoro-3-(methylsulfonyl)phenyl)-2-isopropylpiperazin-1-yl)-4-(trifluoromethyl)pyrimidine-5-carbonyl)-N-methylglycinate] | 194 | 361 |  | 2170 |  |  | > 20000 |  | 1530 (99) % | 1530 | > 20000 | 361 (86) % | 
7 | CC(C)[C@@H]1CN(c2ccc(F)c(S(C)(=O)=O)c2)CCN1c1ncc(C(=O)N(C)CCC(C)(C)O)c(C(F)(F)F)n1 [17-17, (R)-2-(4-(4-fluoro-3-(methylsulfonyl)phenyl)-2-isopropylpiperazin-1-yl)-N-(3-hydroxy-3-methylbutyl)-N-methyl-4-(trifluoromethyl)pyrimidine-5-carboxamide] | 618 | 684 |  | > 3330 |  |  | > 20000 | 684 (93) % |  | 2610 | > 20000 |  | 
8 | Cc1ccc(N2CCN(c3cccc(S(C)(=O)=O)c3)C[C@H]2C(C)C)nc1C1CC1 [40-2, (R)-1-(6-cyclopropyl-5-methylpyridin-2-yl)-2-isopropyl-4-(3-(methylsulfonyl)phenyl)piperazine] | 14 | 146 | 792 | 173 | 3505 (14) % | 3500 | > 20000 |  | 792 (80) % |  |  | 146 (93) % | 
9 | Cc1ccc(C2CC2)nc1N1CCN(c2cccc(S(C)(=O)=O)c2)C[C@H]1C(C)C [40-3, (R)-1-(6-cyclopropyl-3-methylpyridin-2-yl)-2-isopropyl-4-(3-(methylsulfonyl)phenyl)piperazine] | 61 | 288 | 2450 | 724 |  | > 20000 | > 20000 | 288 (88) % | 2454 (90) % |  |  |  | 
10 | CC(C)[C@@H]1CN(c2cccc(S(C)(=O)=O)c2)CCN1c1nccc(OC(F)F)n1 [44-2, (R)-4-(difluoromethoxy)-2-(2-isopropyl-4-(3-(methylsulfonyl)phenyl)piperazin-1-yl)pyrimidine] | 35 | 177 |  | 520 | 2594 (24) % |  | 205 |  |  |  |  | 177 (103) % | IC50 [3]: 1470 nM; Cell LXRα efficacy [3, 7]: 105%; EC50 [5]: 2590 nM; Cell LXRβ efficacy [6]: 205 (10) %
11 | CS(=O)(=O)c1cccc(N2CCN(C[C@H]3C[C@@H]4[C@H](C3)C4(F)F)[C@@H](c3ccccc3)C2)c1 [48-64, (S)-1-(((1R,3r,5S)-6,6-difluorobicyclo[3.1.0]hexan-3-yl)methyl)-4-(3-(methylsulfonyl)phenyl)-2-phenylpiperazine] |  |  | 4270 | 397 | 1817 (38) % | 1820 |  | 85% | 4272 (104) % |  |  |  | Ki (LXR β LBD protein; Biological Test Example 1): 38 nM; IC50 ([1]; antagonist mode, 200 nM T0901317, HEK293 reporter gene assay, read-out: Cell LXRβ IC50): 288 nM; Cell LXRβ efficacy ([6]; Biological Test Example 2, agonist mode): 11%; EC50 ([6]; Biological Test Example 2, agonist mode, read-out: Cell LXRβ EC50): 411 nM
12 | CC(C)[C@@H]1CN(c2cc(F)c(CO)c(S(C)(=O)=O)c2)CCN1c1ncc(CO)c(C(F)(F)F)n1 [Cpd No 11-6, (R)-(2-fluoro-4-(4-(5-(hydroxymethyl)-4-(trifluoromethyl)pyrimidin-2-yl)-3-isopropylpiperazin-1-yl)-6-(methylsulfonyl)phenyl)methanol] | 2 | 1360 |  | 71 | 216 (58) % |  | 16 | 1355 (65) % |  | 3860 | 216 |  | Cell LXRβ efficacy ([6]; agonist mode): 16 (46) %
13 | CC(C)[C@@H]1CN(c2ccc(F)c(S(C)(=O)=O)c2)CCN1c1ncc(C(N)=O)c(C(F)(F)F)n1 [Cpd No 17-2, (R)-2-(4-(4-fluoro-3-(methylsulfonyl)phenyl)-2-isopropylpiperazin-1-yl)-4-(trifluoromethyl)pyrimidine-5-carboxamide] | 58 | 439 |  | 876 | 1789 (17) % |  | 91 |  | 3715 (97) % | 3720 | 1790 | 439 (97) % | Cell LXRβ efficacy [6]: 91 (10) %
14 | CC(C)[C@@H]1CN(c2ccc(F)c(S(C)(=O)=O)c2Cl)CCN1c1ncc(Cl)c(C2CC2)n1 [Cpd No 22-2, (R)-5-chloro-2-(4-(2-chloro-4-fluoro-3-(methylsulfonyl)phenyl)-2-isopropylpiperazin-1-yl)-4-cyclopropylpyrimidine] | 172 | 2140 | 3610 |  | 1227 (7) % | 1230 | 750 |  | 3610 (83) % |  |  | 2144 (96) % | EC50 (LXR α LBD protein [2]): 271 nM; FRET LXRα efficacy (LXR α LBD protein [2]): 12%; Cell LXRβ efficacy [6]: 750 (10) %
15 | CC(C)[C@@H]1CN(c2ccc(F)c(S(C)(=O)=O)c2)CCN1c1ncc(Cc2ccc(C(C)(C)O)cc2)c(C(F)(F)F)n1 [Cpd No 31-1, (R)-2-(4-((2-(4-(4-fluoro-3-(methylsulfonyl)phenyl)-2-isopropylpiperazin-1-yl)-4-(trifluoromethyl)pyrimidin-5-yl)methyl)phenyl)propan-2-ol] | 18 | 115 | 443 | 159 | 2718 (7) % | 2720 | > 20000 | 115 (124) % | 443 (98) % |  |  |  | 
